# According to patent US20230227449A1, “AMIDOPYRIMIDONE DERIVATIVES” (Hoffmann-La Roche Inc., priority 2020, published 2023):
# Target: Recombinant human Mat2a (Homo sapiens, UniProt P31153)
# Experiment: Determination of Mat2A activity (384 well absorbance-based assay, Biomol Green)
# Format: biochemical
# Conditions: 12.5 nM Mat2A, 100 μM ATP and Methionine, 2% DMSO, 120 minutes at RT, absorbance at 635 nm
# Experimental: Determination of Mat2A activity
# Measurement of Mat2A inhibition is performed in 384 well format absorbance-based assay. Recombinant human Mat2a (12.5 nM) and serial diluted compounds in DMSO (range of concentrations from […] to 508 pM) or controls (DMSO) are incubated for 15 minutes at room temperature (RT) in assay buffer containing 50 mM HEPES pH 7.5, 50 mM KCl, 50 mM MgCl2, 0.01% Tween 20 and 10 mM DTT. The reaction is initiated by the addition of the combined substrates ATP and Methionine, each at a final concentration of 100 μM. Final assay condition are 12.5 nM Mat2A, 100 μM ATP and Methionine Substrates and 2% DMSO. After 120 minutes of incubation at RT, the reaction is stopped by the addition of Biomol Green. The absorbance signal is measured at λ=635 nm with a multiplate reader (BMG Pherastar reader or equivalent) after 30 min of equilibration at RT.
# Chain of Recombinant human Mat2a (P31153 whole entry): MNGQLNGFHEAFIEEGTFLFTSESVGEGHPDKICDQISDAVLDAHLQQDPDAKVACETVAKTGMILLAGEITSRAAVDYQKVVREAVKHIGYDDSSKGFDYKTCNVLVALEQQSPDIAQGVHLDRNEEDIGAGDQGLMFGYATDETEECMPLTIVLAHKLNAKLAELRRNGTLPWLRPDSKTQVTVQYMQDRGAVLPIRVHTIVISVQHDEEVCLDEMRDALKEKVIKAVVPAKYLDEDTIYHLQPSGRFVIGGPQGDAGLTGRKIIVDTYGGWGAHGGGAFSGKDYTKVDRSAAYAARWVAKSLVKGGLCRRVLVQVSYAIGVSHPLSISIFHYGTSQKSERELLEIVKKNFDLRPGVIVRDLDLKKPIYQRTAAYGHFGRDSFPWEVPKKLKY
row,SMILES,IC50 [nM]
1,"N#Cc1cccc(-n2c(=O)nc(N)c3ccc(C4CC4)nc32)c1Cl [Example 143, 3-(4-amino-7-cyclopropyl-2-oxopyrido[2,3-d]pyrimidin-1 (2H)-yl)-2-chlorobenzonitrile]",< 13
2,"Nc1nc(=O)n(-c2cccnc2C(F)(F)F)c2nc(C3CC3)ccc12 [Example 43, 4-amino-7-cyclopropyl-1-(2-(trifluoromethyl)pyridin-3-yl)pyrido[2,3-d]pyrimidin-2(1H)-one]",< 13
3,"Cn1nccc1-n1c(=O)nc(N)c2ccc(N3C[C@H]4CC[C@@H]3C4)nc21 (racemic) [Example 57, 4-amino-7-[(1SR,4RS)-3-azabicyclo[2.2.1]heptan-3-yl]-1-(2-methylpyrazol-3-yl)pyrido[2,3-d]pyrimidin-2-one]",150
4,"Nc1nc(=O)n([C@H]2CCCCOC2)c2nc(C3CC3)ccc12 [Example 125, (S)-4-amino-7-cyclopropyl-1-(oxepan-3-yl)pyrido[2,3-d]pyrimidin-2 (1H)-one]",40
5,"COc1ncccc1-n1c(=O)nc(N)c2ccc(C3CC3)nc21 [Example 9, 4-amino-7-cyclopropyl-1-(2-methoxypyridin-3-yl)pyrido[2,3-d]pyrimidin-2(1H)-one]",< 13
6,"Cc1ncccc1-n1c(=O)nc(N)c2ccc(C(F)(F)F)cc21 [Example 29, 4-amino-1-(2-methylpyridin-3-yl)-7-(trifluoromethyl)quinazolin-2-one]",< 13
7,"Nc1nc(=O)n(-c2cccc3c2CCO3)c2nc(C3CC3)ccc12 [Example 17, 4-amino-7-cyclopropyl-1-(2,3-dihydrobenzofuran-4-yl)pyrido[2,3-d]pyrimidin-2(1H)-one]",95
8,"Cc1c(F)cccc1-n1c(=O)nc(N)c2ccc(C3CC3)nc21 [Example 25, 4-amino-7-cyclopropyl-1-(3-fluoro-2-methylphenyl)pyrido[2,3-d]pyrimidin-2(1H)-one]",< 13
9,"COc1ccccc1-n1c(=O)nc(N)c2ccc(C3CC3)nc21 [Example 2, 4-amino-7-cyclopropyl-1-(2-methoxyphenyl)pyrido[2,3-d]pyrimidin-2(1H)-one]",< 13
10,"Cc1c(C#N)cccc1-n1c(=O)nc(N)c2ccc(C3CC3)nc21 [Example 15, 3-(4-amino-7-cyclopropyl-2-oxopyrido[2,3-d]pyrimidin-1(2H)-yl)-2-methylbenzonitrile]",< 13
11,"Nc1nc(=O)n(-c2cccnc2Cl)c2cc(OC(F)(F)F)ccc12 [Example 109, 4-amino-1-(2-chloro-3-pyridyl)-7-(trifluoromethoxy)quinazolin-2-one]",16
12,"Nc1nc(=O)n([C@H]2CCCOC23CC3)c2nc(C3CC3)ccc12 [Example 142, 4-amino-7-cyclopropyl-1-[(8S)-4-oxaspiro[2.5]octan-8-yl]pyrido[2,3-d]pyrimidin-2-one]",< 13
13,"Cc1c(O)cccc1-n1c(=O)nc(N)c2ccc(C3CC3)nc21 [Example 123, 4-amino-7-cyclopropyl-1-(3-hydroxy-2-methylphenyl)pyrido[2,3-d]pyrimidin-2 (1H)-one]",13
14,"Nc1nc(=O)c(-c2ccccc2Cl)c2cc(C(F)(F)F)ccn12 [Example 149, 1-amino-4-(2-chlorophenyl)-6-(trifluoromethyl)pyrido[1,2-c]pyrimidin-3-one]",24
15,"Nc1nc(=O)n(C2CCOC2)c2nc(C3CC3)ccc12 (centres unmarked) [Example 6, 4-amino-7-cyclopropyl-1-(tetrahydrofuran-3-yl)pyrido[2,3-d]pyrimidin-2(1H)-one]",28
16,"COc1c(C#N)cccc1-n1c(=O)nc(N)c2ccc(C(C)C)nc21 [Example 38, 3-(4-amino-7-isopropyl-2-oxopyrido[2,3-d]pyrimidin-1(2H)-yl)-2-methoxybenzonitrile]",< 13
17,Cc1ncccc1-n1c(=O)nc(N)c2ccc(OC(F)F)cc21 [Example 34],< 13
18,"Cc1ccccc1-n1c(=O)nc(N)c2ccc(OC(F)F)nc21 [Example 91, 4-amino-7-(difluoromethoxy)-1-(2-methylphenyl)pyrido[2,3-d]pyrimidin-2-one]",< 13
19,"COc1ccc2c(N)nc(=O)n(-c3cccnc3C)c2c1 [Example 39, 4-amino-7-methoxy-1-(2-methylpyridin-3-yl)quinazolin-2(1H)-one]",< 13
20,"C[C@@H]1OCC[C@H]1n1c(=O)nc(N)c2ccc(C3CC3)nc21 (racemic) [Example 30, 4-amino-7-cyclopropyl-1-[rac-(2RS,3SR)-2-methyloxolan-3-yl]pyrido[2,3-d]pyrimidin-2-one]",22
21,"Cc1ncncc1-n1c(=O)nc(N)c2ccc(C3CC3)nc21 [Example 42, 4-amino-7-cyclopropyl-1-(4-methylpyrimidin-5-yl)pyrido[2,3-d]pyrimidin-2(1H)-one]",< 13

row,SMILES,IC50 [nM]
1,"Cc1ncccc1-n1c(=O)nc(N)c2ccc(C(F)F)cc21 [Example 35, 4-amino-7-(difluoromethyl)-1-(2-methylpyridin-3-yl)quinazolin-2(1H)-one]",< 13
2,"Cc1ncccc1-n1c(=O)nc(N)c2ccc(C3CC3)nc21 [Example 7, 4-amino-7-cyclopropyl-1-(2-methylpyridin-3-yl)pyrido[2,3-d]pyrimidin-2(1H)-one]",< 13
3,"CCn1nccc1-n1c(=O)nc(N)c2ccc(C3CC3)nc21 [Example 61, 4-amino-7-cyclopropyl-1-(1-ethyl-1H-pyrazol-5-yl)pyrido[2,3-d]pyrimidin-2(1H)-one]",< 13
4,"Cc1ncccc1-n1c(=O)nc(N)c2ccc(OC(F)(F)F)cc21 [Example 40, 4-amino-1-(2-methylpyridin-3-yl)-7-(trifluoromethoxy)quinazolin-2(1H)-one]",< 13
5,"Cc1cccc(-n2c(=O)nc(N)c3ccc(OC(F)F)cc32)c1F [Example 133, 4-amino-7-(difluoromethoxy)-1-(2-fluoro-3-methylphenyl)quinazolin-2 (1H)-one]",26
6,"Nc1nc(=O)n(-c2ccccc2Cl)c2nc(C3CC3)ccc12 (single isomer, unassigned) [Example 115, (−)-4-amino-1-(2-chlorophenyl)-7-cyclopropylpyrido[2,3-d]pyrimidin-2 (1H)-one]",72
7,"Cc1ccccc1-n1c(=O)nc(O)c2ccc(C3CC3)nc21 [Example 99, 7-cyclopropyl-1-(2-methylphenyl)pyrido[2,3-d]pyrimidine-2,4-dione]",65
8,"Cc1ncccc1-n1c(=O)nc(N)c2ccc([C@H]3C[C@@H]3F)nc21 (racemic) [Example 36, 4-amino-7-[(1RS,2SR)-2-fluorocyclopropyl]-1-(2-methyl-3-pyridyl)pyrido[2,3-d]pyrimidin-2-one]",< 13
9,"Nc1nc(=O)n(-c2cccc(F)c2Cl)c2nc(C3CC3)ccc12 (single isomer, unassigned) [Example 117, (−)-4-amino-1-(2-chloro-3-fluorophenyl)-7-cyclopropylpyrido[2,3-d]pyrimidin-2 (1H)-one]",78
10,"COc1ncccc1-n1c(=O)nc(N)c2ccc(C3CCCCO3)nc21 (centres unmarked) [Example 54, 4-amino-1-(2-methoxy-3-pyridyl)-7-tetrahydropyran-2-yl-pyrido[2,3-d]pyrimidin-2-one]",140
11,"Nc1nc(=O)n(-c2cc(F)ccc2F)c2nc(C3CC3)ccc12 [Example 154, 4-amino-7-cyclopropyl-1-(2,5-difluorophenyl)pyrido[2,3-d]pyrimidin-2 (1H)-one]",20
12,"Cc1ncsc1-n1c(=O)nc(N)c2ccc(C3CC3)nc21 [Example 51, 4-amino-7-cyclopropyl-1-(4-methylthiazol-5-yl)pyrido[2,3-d]pyrimidin-2-one]",< 13
13,"Cc1ncccc1-n1c(=O)nc(N)c2ccc(C(C)(C)F)cc21 [Example 58, 4-amino-7-(2-fluoropropan-2-yl)-1-(2-methylpyridin-3-yl)quinazolin-2-one]",22
14,"Nc1nc(=O)n(-c2cc(F)cc(F)c2)c2nc(C3CC3)ccc12 [Example 70, 4-amino-7-cyclopropyl-1-(3,5-difluorophenyl)pyrido[2,3-d]pyrimidin-2(1H)-one]",66
15,"Cc1c(C#N)cccc1-n1c(=O)nc(N)c2ccc(C(F)(F)F)cc21 [Example 76, 3-(4-amino-2-oxo-7-(trifluoromethyl)quinazolin-1(2H)-yl)-2-methylbenzonitrile]",< 13
16,"Nc1nc(=O)n([C@@H]2CCCOC2)c2nc([C@@H]3C[C@H]3F)ccc12 (mixture of isomers) [Example 49, 4-amino-7-[(1SR,2RS)-2-fluorocyclopropyl]-1-[(3R)-tetrahydropyran-3-yl]pyrido[2,3-d]pyrimidin-2-one]",14
17,"Cc1ccccc1-n1c(=O)nc(N)c2c(C#N)cc(C3CC3)nc21 [Example 95, 4-amino-7-cyclopropyl-2-oxo-1-(o-tolyl)-1,2-dihydropyrido[2,3-d]pyrimidine-5-carbonitrile]",22
18,"CC1COCC1n1c(=O)nc(N)c2ccc(C3CC3)nc21 (centres unmarked) [Example 28, 4-amino-7-cyclopropyl-1-(4-methyltetrahydro-furan-3-yl)pyrido[2,3-d]pyrimidin-2(1H)-one]",57
19,"COc1ncccc1-n1c(=O)nc(N)c2cc(Cl)c(C3CC3)nc21 [Example 66, 4-amino-6-chloro-7-cyclopropyl-1-(2-methoxypyridin-3-yl)pyrido[2,3-d]pyrimidin-2(1H)-one]",13
20,"Nc1nc(=O)n(-c2cccc(Cl)c2Cl)c2nc(C3CC3)ccc12 [Example 128, 4-amino-7-cyclopropyl-1-(2,3-dichlorophenyl)pyrido[2,3-d]pyrimidin-2 (1H)-one]",< 13
